Source: US10487117B2, “Antimicrobial peptide for nosocomial infections” (priority 2015, dated 2019)
“And” between values parts separate entries of the source, which are not always exact repeats. Equal values may be shown once. Residues, ends and D or L forms follow the SMILES beside them.

B1: RNase 3: Recombinant human RNase 3, also known as eosinophil cationic protein (ECP), parental protein of the peptide (protein, UniProt P12724 28-160, looked up)
Eosinophil cationic protein: RPPQFTRAQWFAIQHISLNPPRCTIAMRAINNYRWRCKNQNTFLRTTFANVVNVCGNQSIRCPHNRTLNNCHRSRFRVPLLHCDLINPGAQNISNCTYADRPGRRFYVVACDNRDPRDSPRYPVVPVHLDTTI

Tests used:
planktonic P. aeruginosa [1] = test: SYTOX Green membrane permeabilization assay, planktonic; assay type: cell-based, Pseudomonas aeruginosa; conditions: 10% Triton X-100 as maximum reference
Method: Further insight into the membrane-permeabilizing effect of the selected AMPs against P. aeruginosa was evaluated by the Sytox Green assay. Local membrane disturbances allow the cell uptake of the fluorescent Sytox Green dye that subsequently stains the cell nucleic acids; the fluorescence increase is registered to monitor the cell membrane permeabilization. Therefore, the half permeabilization action (ED50) was measured, and the total permeabilization activity expressed as a percentage (Table 5). […] On the other hand, WY-12 and CA-M required a 6- to 7-fold greater concentration than RNase 3 to produce half of their permeabilizing effect.
(§1) Membrane permeabilization was followed using the method SYTOX Green Fluorescence membrane permeabilization assay. In the planktonic assay, bacterial cells were grown at 37° C. to an OD600=0.2, centrifuged at 5000×g for 5 min, and resuspended in 1×PBS to an OD600=0.2. An aliquot of 200 μl was then transferred to a microtiter plate. For biofilm assay, 24 h formed P. aeruginosa biofilm in a 96-well microtiter plate were washed three times with sterile PBS. SYTOX Green was added to a final concentration of 1 μM and incubated 15 min in darkness. Changes in the fluorescence were continuously recorded after addition of a serially diluted protein/peptides from 50 to 0.1 μM in a Victor3 plate reader. The peptide concentration required to achieve half of total and total membrane permeabilization achieved after 40 min was estimated from nonlinear regression analysis as previously described (Pulido D. et al. Antimicrob Agents Chemother 2013). A maximum reference value was taken for Triton X-100 at 10%.

[2] = Biofilm cell mortality, BacTiter-Glo luminescent assay; assay type: cell-based, Pseudomonas aeruginosa; conditions: 24 h formed biofilm; 4 h at 37° C.; 10% Triton X-100 as maximum reference; N.D. = not detected at 50 μM; read-out: Biofilm cell mortality (%max)
Method: (§2) Bacterial viability was assayed using the BacTiter-Glo™ microbial cell viability kit. Briefly, protein/peptides were dissolved in 10 mM sodium phosphate, 0.1M buffer, pH 7.5, serially diluted from 50 to 0.1 μM and tested in a 96-well microtiter plate containing P. aeruginosa planktonic (OD600˜0.2) or 24 h formed biofilm for 4 h at 37° C. Fifty microliters of BacTiter-Glo™ reagent was added to each well according to the manufacturer's instructions and incubated at room temperature for 15 min. Luminescence was read on a Victor3 plate reader with a 3-s integration time. Fifty percent (ED50) and total inhibitory concentrations were calculated by fitting the data to a dose-response curve.
(§3) As a first approach, the biofilm cell viability was monitored using the BacTiter-Glo™ luminescent assay. Therefore, the antimicrobial action of the studied AMPs was determined on already established P. aeruginosa biolfilms (FIG. 1 and Table 6). […] However, for all the active peptides, the concentrations needed to produce an equivalent effect in biofilms were between 2 to 10 times higher than in planktonic cultures. […] At the same time, we applied the crystal violet technique to assess the peptide ability to disperse pre-established P. aeruginosa biofilms.
(§4) Biofilm formation assay was modified from the previously described protocol (Huedo P. et al. 2014). Briefly, overnight cultures of P. aeruginosa were centrifuged at 5000×g for 5 min, washed and adjusted to an OD600=0.1 in tryptic soy medium (TSB). Two hundred microliters of the bacterial suspension were dispensed in each well of a polystyrene 96-well microtiter plate (Greiner Bio-one, France). The plate was incubated at 37° C. on an orbital shaker (30 rpm). The media was exchanged with fresh pre-warmed TSB after 4 h, in order to remove the non-attached bacteria. After 24 h incubation, the formation of biofilm was then evaluated using the crystal violet staining technique (Stepanovic S. et al. 2000). Briefly, the plates were washed three times with PBS, fixed at 60° C. for 1 h, and stained for 15 min with 200 μl of 0.1% crystal violet. After the dye was discarded, plates were rinsed in PBS and allowed to dry for 30 min at 37° C. Crystal violet was dissolved in 250 μl of 95% ethanol for 15 min, and the OD570 of the extracted dye was measured using a Victor3 plate reader (Perkin-Elmer, Waltham, Mass.).

planktonic P. aeruginosa [3] = test: DiSC3(5) cytoplasmic membrane depolarization assay, planktonic; assay type: cell-based, Pseudomonas aeruginosa; conditions: 10% Triton X-100 as maximum reference
Method: To further investigate the antimicrobial mechanism of action of the peptide, its ability to depolarize P. aeruginosa membranes was evaluated. Depolarization activity was analyzed by the DiSC3(5) assay (Table 5). DiSC3(5) is a fluorescent probe, which is sensitive to membrane potential. The DiSC3(5) fluorescence is quenched upon interaction with intact cell membranes. When the membrane potential is lost, the probe is released to the medium, resulting in an increase of fluorescence that can be recorded as a function of peptide concentration. Thus, the half depolarization action (ED50) was evaluated, defined as the peptide concentration needed to achieve a half-depolarization effect, and the total depolarization activity at final incubation time (Table 3).
(§5) Membrane depolarization was followed using the method described earlier (Torrent M. et al. 2008). Briefly, bacterial cells were grown at 37° C. to an OD600=0.2, centrifuged at 5000×g for 7 min, washed with 5 mM Hepes at pH 7.2 containing 20 mM glucose, and resuspended in 5 mM Hepes-KOH, 20 mM glucose, and 100 mM KCl at pH 7.2 to an OD600=0.05 and 200 μl were transferred to a microtiter plate for planktonic assays. For biofilm assay, 24 h formed P. aeruginosa biofilm in a 96-well microtiter plate were washed three times with sterile PBS. Afterwards P. aeruginosa biofilms were washed with 5 mM Hepes at pH 7.2 containing 20 mM glucose, and rinsed in 5 mM Hepes-KOH, 20 mM glucose, and 100 mM KCl at pH 7.2. In both cases, DiSC3(5) was added to a final concentration of 0.4 μM and changes in the fluorescence were continuously recorded after addition of peptides at 10 μM in a Victor3 plate reader. A maximum reference value for total depolarization is calculated for Triton X-100 at 10%. Alternatively, changes in the fluorescence were continuously recorded after addition of a serially diluted protein/peptides from 50 to 0.1 μM. The peptide concentration required to achieve half of total and total membrane depolarization after 40 min incubation time was estimated from nonlinear regression analysis as previously described (Torrent M. et al. 2010)

[4] = test system: established P. aeruginosa biofilms; test: SYTOX Green membrane permeabilization assay on biofilm; assay type: cell-based, Pseudomonas aeruginosa; conditions: maximum percentage at final incubation time, 10% Triton X-100 reference
Method: as §1
(§6) Thereupon, the antimicrobial mechanism of action of the RNase 3 derived peptide on P. aeruginosa biofilms was further characterized with the depolarization and permeabilization assays. As applied for the P. aeruginosa planktonic culture, the fluorescent DisC3(5) assay was also used here in order to monitor the depolarization activity of the studied protein and peptides against established biofilms. Therefore, we have measured the half depolarization action (ED50), and the total depolarization activity expressed as a percentage (Table 7). […] Similar results were obtained for the Sytox Green permeabilization assay, where the total permeabilization effect was hindered for all the AMPs tested, and between two to ten times higher concentrations were required to achieve half of the biofilm cell permeabilizing effect in comparison to the planktonic cells.

[5] = test system: established P. aeruginosa biofilms; test: DiSC3(5) membrane depolarization assay on biofilm; assay type: cell-based, Pseudomonas aeruginosa; conditions: maximum percentage at final incubation time, 10% Triton X-100 reference
Method: as §5, §6

[6] = test system: pre-established P. aeruginosa biofilm; test: Biofilm eradication assay, crystal violet staining; assay type: cell-based, Pseudomonas aeruginosa; conditions: 24 h formed biofilm; 4 h at 37° C.; 10% Triton X-100 as maximum reference
Method: Following, the biofilm eradication activity was determined (FIG. 1 and Table 6). […] Moreover, the biofilm eradication activity of all the tested reference peptides was well above the maximum concentration tested (50 μM), except for RN3(5-17P22-36) which was able to eradicate the biofilm close to 50 μM.
as §4
Biofilms were grown as above. Twenty-four hour formed P. aeruginosa biofilm was washed three times with sterile PBS, and rinsed with 10 mM sodium phosphate buffer pH 7.5. Each well was treated with increasing protein/peptide concentrations (from 0.01 to 50 μM) and incubated at 37° C. for 4 h. The biofilm eradication was then evaluated using the crystal violet staining technique (Stepanovic S. et al. 2000). The ability of the antimicrobial peptides to disperse and reduce the biofilm mass of preformed biofilms was calculated. The peptide concentration required to achieve total preformed biofilm eradication after 4 h incubation time was estimated. A maximum reference value was taken for Triton X-100 at 10%. The minimum biofilm eradication concentration (MBEC), defined as the protein/peptide concentration where the 99.9% of the biofilm mass is eradicated was estimated.

[7] = test system: pre-established P. aeruginosa biofilm; test: Biofilm cell mortality, BacTiter-Glo luminescent assay; assay type: cell-based, Pseudomonas aeruginosa; conditions: 24 h formed biofilm; 4 h at 37° C.; 10% Triton X-100 as maximum reference; N.D. = not detected at 50 μM
Method: as §2, §3, §4

[8] = test system: LPS (lipopolysaccharides) from P. aeruginosa; test: LPS binding assay, BODIPY TR cadaverine (BC) displacement; design: species or system Pseudomonas aeruginosa; conditions: 100% = total displacement of the dye; mean ± SEM
Method: Following, LPS binding affinity was monitored by a fluorometric assay which measures the competitive displacement of a cadaverine fluorescent probe (BC) by the protein and peptides. The half LPS binding affinity (ED50), defined as the AMP concentration needed to achieve half of BC displacement, and the total LPS binding affinity, expressed as a percentage, were determined (Table 4). Interaction with negatively charged surfaces of bacteria is the first step for cationic peptides to reach the bacterial membranes and exert their antimicrobial action.
LPS binding was assessed using the fluorescent probe BODIPY TR cadaverine (BC) as previously described (Pulido D. et al. Febs J 2013). BC binds strongly to native LPS, specifically recognizing the lipid A portion. When a protein that interacts with LPS is added, BC is displaced from the complex and its fluorescence is increased, decreasing its occupancy factor. LPS-binding assays were carried out in a 10 mM Hepes buffer at pH 7.5. The displacement assay was performed using a 96 well microtiter plate containing stirred mixture of either LPS (10 μg/mL) and BC (10 μM). Protein/peptides were serially diluted from 10 to 0.1 μM. Fluorescence measurements were performed on a Victor3 plate reader (Perkin Elmer, Waltham, Mass.). The protein/peptide concentration required to achieve half of total and total BC displacement was estimated from nonlinear regression analysis as previously described (Wood S. J. et al. 2004)

planktonic P. aeruginosa [9] = assay type: cell-based, Pseudomonas aeruginosa; conditions: planktonic P. aeruginosa; 4 h at 37° C.; mean ± SEM; N.D. = not detected at 50 μM; read-out: IC50 (50% bacterial viability)
Method: The microbial cell viability was then assayed using the BacTiter-Glo™ luminescent kit. […] No cell reduction was detected for the peptide GL-13 even for the maximum concentration assayed (50 μM).
as §2

| Molecule | Permeabilization %max (planktonic P. aeruginosa [1]) [%] | mortality [2] [%] | Depolarization %max (planktonic P. aeruginosa [3]) [%] | Permeabilization Mean % ± SEM [4] [%] | Depolarization Mean % ± SEM [5] [%] | Biofilm eradication (%max) [6] [%] | Biofilm cell mortality (%max) [7] | LPS binding %max (percentage of maximum displacement) [8] [%] | IC50 (planktonic P. aeruginosa [9]) [nM] |
| --- | --- | --- | --- | --- | --- | --- | --- | --- | --- |
| CC[C@H](C)[C@H](NC(=O)[C@H](Cc1ccccc1)NC(=O)[C@@H](NC(=O)[C@H](Cc1ccccc1)NC(=O)[C@H](CCCNC(=N)N)NC(=O)[C@H](CCCCN)NC(=O)[C@H](CCCNC(=N)N)NC(=O)[C@H](CCCCN)NC(=O)[C@H](Cc1c[nH]c2ccccc12)NC(=O)[C@H](CC(C)C)NC(=O)[C@@H](NC(=O)[C@@H](N)Cc1ccc(O)cc1)C(C)C)[C@@H](C)CC)C(N)=O [WY-12, YVLWKRKRFIFI-NH2] (H-YVLWKRKRFIFI-NH2; N-terminus assumed) | 39.43 ± 1.19 | 39.7 ± 8.93 | 44.02 ± 4.01 | 18.91 ± 2.23 | 32.58 ± 1.87 | 38.36 ± 2.36 |  |  |  |
| B1 | 45.67 ± 2.29 |  |  | 39.4 ± 2.88 | 46.11 ± 3.21 |  | ~50% and 67.31 ± 0.79% | 99.85 ± 9.51 | 840 ± 30 |
